Results published in ChEMBL document CHEMBL3612057, “Discovery of indolizines containing triazine moiety as new leads for the development of antitumoral agents targeting mitotic events” (2015).
Calls of active or inactive are those of the source. The calls are words filed in the database; no cut-off is given here.

Legend:
[1] = test system: SK-MEL-5; assay: Cytotoxicity against human SK-MEL-5 cells assessed as growth inhibition at 10 uM after 24 hrs by SRB assay; assay type: functional
[2] = test system: HOP-62; assay: Cytotoxicity against human HOP62 cells assessed as growth inhibition at 10 uM after 24 hrs by SRB assay; assay type: functional; details: HOP-62, 24 h, read-out: GI
[3] = test system: NCI-H460; assay: Cytotoxicity against human NCI-H460 cells assessed as growth inhibition at 10 uM after 24 hrs by SRB assay; assay type: functional
[4] = test system: NCI-H522; assay: Cytotoxicity against human NCI-H522 cells assessed as growth inhibition at 10 uM after 24 hrs by SRB assay; assay type: functional; details: NCI-H522, 24 h, read-out: GI
[5] = test system: NCI-H226; assay: Cytotoxicity against human NCI-H226 cells assessed as growth inhibition at 10 uM after 24 hrs by SRB assay; assay type: functional
[6] = test system: K562; assay: Cytotoxicity against human K562 cells assessed as growth inhibition at 10 uM after 24 hrs by SRB assay; assay type: functional
[7] = test system: CAKI-1; assay: Cytotoxicity against human CAKI-1 cells assessed as growth inhibition at 10 uM after 24 hrs by SRB assay; assay type: functional
[8] = test system: SK-MEL-28; assay: Cytotoxicity against human SK-MEL-28 cells assessed as growth inhibition at 10 uM after 24 hrs by SRB assay; assay type: functional
[9] = test system: SR; assay: Cytotoxicity against human SR cells assessed as growth inhibition at 10 uM after 24 hrs by SRB assay; assay type: functional
[10] = test system: T47D; assay: Cytotoxicity against human T47D cells assessed as growth inhibition at 10 uM after 24 hrs by SRB assay; assay type: functional
[11] = test system: MCF7; assay: Cytotoxicity against human MCF7 cells assessed as growth inhibition at 10 uM after 24 hrs by SRB assay; assay type: functional
[12] = test system: SNB-75; assay: Cytotoxicity against human SNB75 cells assessed as growth inhibition at 10 uM after 24 hrs by SRB assay; assay type: functional; details: SNB-75, 24 h, read-out: GI
[13] = test system: Malme-3M; assay: Cytotoxicity against human MALME-3M cells assessed as growth inhibition at 10 uM after 24 hrs by SRB assay; assay type: functional; details: read-out: GI
[14] = test system: TK-10; assay: Cytotoxicity against human TK10 cells assessed as growth inhibition at 10 uM after 24 hrs by SRB assay; assay type: functional
[15] = test system: MDA-MB-435; assay: Cytotoxicity against human MDA-MB-435 cells assessed as growth inhibition at 10 uM after 24 hrs by SRB assay; assay type: functional
[16] = test system: PC-3; assay: Cytotoxicity against human PC3 cells assessed as growth inhibition at 10 uM after 24 hrs by SRB assay; assay type: functional
[17] = test system: U-251; assay: Cytotoxicity against human U251 cells assessed as growth inhibition at 10 uM after 24 hrs by SRB assay; assay type: functional; details: U-251, 24 h, read-out: GI
[18] = test system: RXF 393; assay: Cytotoxicity against human RXF393 cells assessed as growth inhibition at 10 uM after 24 hrs by SRB assay; assay type: functional; details: RXF 393, 24 h, read-out: GI
[19] = Cytotoxicity against human Hs578T cells assessed as growth inhibition at 10 uM after 24 hrs by SRB assay; assay type: functional; details: Hs-578T, read-out: GI
[20] = organism: Ovis aries; assay: Inhibition of sheep tubulin polymerization at 100 uM by fluorescence assay
[21] = test system: HOP-92; assay: Cytotoxicity against human HOP92 cells assessed as growth inhibition at 10 uM after 24 hrs by SRB assay; assay type: functional
[22] = test system: 786-0; assay: Cytotoxicity against human 786-0 cells assessed as growth inhibition at 10 uM after 24 hrs by SRB assay; assay type: functional; details: 786-0, 24 h, read-out: GI
[23] = test system: HCT-116; assay: Cytotoxicity against human HCT116 cells assessed as growth inhibition at 10 uM after 24 hrs by SRB assay; assay type: functional
[24] = test system: UACC-257; assay: Cytotoxicity against human UACC257 cells assessed as growth inhibition at 10 uM after 24 hrs by SRB assay; assay type: functional; details: UACC-257, 24 h, read-out: GI
[25] = test system: ACHN; assay: Cytotoxicity against human ACHN cells assessed as growth inhibition at 10 uM after 24 hrs by SRB assay; assay type: functional; details: read-out: GI
[26] = test system: MDA-MB-231; assay: Cytotoxicity against human MDA-MB-231 cells assessed as growth inhibition at 10 uM after 24 hrs by SRB assay; assay type: functional; details: MDA-MB-231, 24 h, read-out: GI
[27] = test system: OVCAR-8; assay: Cytotoxicity against human OVCAR8 cells assessed as growth inhibition at 10 uM after 24 hrs by SRB assay; assay type: functional; details: OVCAR-8, 24 h, read-out: GI
[28] = test system: OVCAR-4; assay: Cytotoxicity against human OVCAR4 cells assessed as growth inhibition at 10 uM after 24 hrs by SRB assay; assay type: functional
[29] = test system: SF-539; assay: Cytotoxicity against human SF539 cells assessed as growth inhibition at 10 uM after 24 hrs by SRB assay; assay type: functional; details: SF-539, 24 h, read-out: GI
[30] = test system: SK-OV-3; assay: Cytotoxicity against human SKOV3 cells assessed as growth inhibition at 10 uM after 24 hrs by SRB assay; assay type: functional; details: SK-OV-3, 24 h, read-out: GI
[31] = test system: CCRF-CEM; assay: Cytotoxicity against human CCRF-CEM cells assessed as growth inhibition at 10 uM after 24 hrs by SRB assay; assay type: functional
[32] = test system: A549; assay: Cytotoxicity against human A549 cells assessed as growth inhibition at 10 uM after 24 hrs by SRB assay; assay type: functional; details: A549, 24 h, read-out: GI
[33] = test system: UACC-62; assay: Cytotoxicity against human UACC62 cells assessed as growth inhibition at 10 uM after 24 hrs by SRB assay; assay type: functional; details: UACC-62, 24 h, read-out: GI
[34] = test system: SF-295; assay: Cytotoxicity against human SF295 cells assessed as growth inhibition at 10 uM after 24 hrs by SRB assay; assay type: functional
[35] = test system: RPMI-8226; assay: Cytotoxicity against human RPMI8226 cells assessed as growth inhibition at 10 uM after 24 hrs by SRB assay; assay type: functional
[36] = test system: HL-60(TB); assay: Cytotoxicity against human HL-60(TB) cells assessed as growth inhibition at 10 uM after 24 hrs by SRB assay; assay type: functional
[37] = test system: OVCAR-3; assay: Cytotoxicity against human OVCAR3 cells assessed as growth inhibition at 10 uM after 24 hrs by SRB assay; assay type: functional
[38] = test system: NCI/ADR-RES; assay: Cytotoxicity against human NCI/ADR-RES cells assessed as growth inhibition at 10 uM after 24 hrs by SRB assay; assay type: functional; details: read-out: GI

| SMILES | inhibition of growth at 10 µM [2] | inhibition of growth at 10 µM [4] | growth inhibition (GI) [5] | inhibition of growth at 10 µM [12] | inhibition of growth at 10 µM [13] | growth inhibition (GI) [14] | inhibition of growth at 10 µM [17] | inhibition of growth at 10 µM [18] | inhibition of growth at 10 µM [19] | inhibition [20] | inhibition of growth at 10 µM [22] | inhibition of growth at 10 µM [24] | inhibition of growth at 10 µM [25] | inhibition of growth at 10 µM [26] | inhibition of growth at 10 µM [27] | inhibition of growth at 10 µM [29] | inhibition of growth at 10 µM [30] | inhibition of growth at 10 µM [32] | inhibition of growth at 10 µM [33] | also measured |
| --- | --- | --- | --- | --- | --- | --- | --- | --- | --- | --- | --- | --- | --- | --- | --- | --- | --- | --- | --- | --- |
| COc1nc(OC)nc(-c2cc(C(=O)c3ccc(C)cc3)n3ccc(C#N)cc23)n1 | 60% | 21% | inactive | -14% | 17% | inactive | 56% | 52% | 42% | inactive | 40% | 16% | 15% | 39% | 14% | 42% | 42% | 11% | 14% | growth inhibition (GI) [1]: inactive; growth inhibition (GI) [3]: inactive; growth inhibition (GI) [6]: inactive; growth inhibition (GI) [7]: inactive; growth inhibition (GI) [8]: inactive; growth inhibition (GI) [9]: inactive; growth inhibition (GI) [10]: inactive; growth inhibition (GI) [11]: inactive; growth inhibition (GI) [15]: inactive; growth inhibition (GI) [16]: inactive; inhibition of growth at 10 µM ([21]; HOP-92, 24 h, read-out: GI): 11%; growth inhibition (GI) [23]: inactive; growth inhibition (GI) [28]: inactive; growth inhibition (GI) [31]: inactive; inhibition of growth at 10 µM ([34]; SF-295, 24 h, read-out: GI): 47%; growth inhibition (GI) [35]: inactive; growth inhibition (GI) [36]: inactive; growth inhibition (GI) [37]: inactive |
| COc1nc(OC)nc(-c2cc(C(=O)c3cc(OC)c(OC)c(OC)c3)n3ccc(C)cc23)n1 | 28% | 43% | inactive | 58% | 61% | inactive | 15% | 41% | 35% | inactive | 20% | 38% | 47% | 25% | 15% | 29% | 29% | 36% | 63% | inhibition of growth at 10 µM ([1]; SK-MEL-5, 24 h, read-out: GI): 63%; inhibition of growth at 10 µM ([3]; NCI-H460, 24 h, read-out: GI): 16%; inhibition of growth at 10 µM ([6]; K562, 24 h, read-out: GI): 56%; inhibition of growth at 10 µM ([7]; CAKI-1, 24 h, read-out: GI): 25%; inhibition of growth at 10 µM ([8]; SK-MEL-28, 24 h, read-out: GI): 40%; inhibition of growth at 10 µM ([9]; read-out: GI): 74%; inhibition of growth at 10 µM [38]: 24%; inhibition of growth at 10 µM ([11]; MCF7, 24 h, read-out: GI): 73%; inhibition of growth at 10 µM ([15]; MDA-MB-435, 24 h, read-out: GI): 100%; inhibition of growth at 10 µM ([16]; PC-3, 24 h, read-out: GI): 36%; growth inhibition (GI) [21]: inactive; inhibition of growth at 10 µM ([23]; HCT-116, 24 h, read-out: GI): 27%; inhibition of growth at 10 µM ([28]; OVCAR-4, 24 h, read-out: GI): 21%; inhibition of growth at 10 µM ([31]; read-out: GI): 26%; growth inhibition (GI) [34]: inactive; inhibition of growth at 10 µM ([35]; RPMI-8226, 24 h, read-out: GI): 30%; inhibition of growth at 10 µM ([36]; HL-60, 24 h, read-out: GI): 60%; inhibition of growth at 10 µM ([37]; OVCAR-3, 24 h, read-out: GI): 75% |
